The subject of assay [1] is Escherichia coli (ATCC #25922). The assay is classed as cell-based.
For assay [2], the system named is estrogenic activity of 17-β-estradiol (E2); human estrogen receptor. The assay is described as follows: Estrogenic activity, YES assay (recombinant yeast). The assay is classed as cell-based, Saccharomyces cereviciae. Conditions: E2 spiked.
In assay [3] the test system is aerobic spores (Bacillus subtilis). The assay is classed as cell-based.
The test system of a further assay is spiked organisms. The assay is described as follows: Preliminary studies using PBS: ferrate with E-beam on spiked organisms. The assay is classed as cell-based. Conditions: ferrate 2 ppm or 4 ppm in combination with E-beam (6 kGy, 8 kGy and 12 kGy).
Assay [4] relates to male-specific coliphages (MS-2). The format is cell-based, coliphage MS-2.
Assay [5] concerns estrogenic activity of 17-β-estradiol (E2); human estrogen receptor (ER) α. The assay is described as follows: Estrogenic activity, ZR-75 breast cancer cell ERE-Luc reporter assay. The assay is classed as cell-based. As to conditions: E2 spiked.
The next assay deals with Salmonella Typhimurium. The assay is classed as cell-based.
A further assay has as its system Poliovirus Type 1. The assay is classed as cell-based, Poliovirus-1.
Assay [6] deals with estrogenic activity of 17-β-estradiol (E2); human estrogen receptor. As to conditions: it has been shown; cited from earlier work.
Setting [7] is: Table 28, 50 ppm + E-Beam (8 kGy).
Setting [8] is: Table 28, 100 ppm + E-Beam (8 kGy).
Where [9] appears, read: Table 28, 200 ppm + E-Beam (8 kGy).
The mark [10] stands for this setting: Table 29, 50 ppm + E-Beam (8 kGy).
The mark [11] stands for this setting: Table 29, 100 ppm + E-Beam (8 kGy).
Where [12] appears, read: Table 29, 200 ppm + E-Beam (8 kGy).

`[O]=[Fe](=[O])([O-])[O-]` [Ferrate, ferrate]: the “surviving bacterial colonies (detection limit)” value (in assay [1]; with Salmonella Typhimurium) was < 10 CFU/ml each time. In addition, the “% Reduction in Estrogenic Activity, Solid Portion (n = 3)” value turned out to be 40% in assay [2] (setting [7]); 40% in assay [2] (Table 28, 50 ppm Ferrate); 43% in assay [2] (setting [8]); 27% in [2] (Table 28, 100 ppm Ferrate); 51% in assay [2] (setting [9]); 59% in [2] (Table 28, 200 ppm Ferrate). The “% Reduction in Estrogenic Activity, Solid Portion (n = 3)” value in assay [2] (setting [10]) was 29%; in assay [2] (Table 29, 50 ppm Ferrate), 30%; in assay [2] (setting [11]), 20%; in [2] (Table 29, 100 ppm Ferrate), 31%; in [2] (setting [12]), 30%; in assay [2] (Table 29, 200 ppm Ferrate), 29%. The “log reduction of spore formers” value in assay [3] is listed as “two to three”. Also, the “reduction of spore formers (in words)” value in [3] is listed as “slight reduction”. Besides, the figures for the “inactivation (in words)” value (in the assay on spiked organisms; in [4]; in the assay with Poliovirus Type 1) were “inactivated”, “Complete inactivation” and “complete elimination”, respectively. Also, the “% Reduction in Estrogenic Activity, Liquid Portion (n = 3)” value in assay [5] (Table 28 (aerobically digested biosolids, inferred b252), 50 ppm Ferrate) was determined as 84%; in assay [5] (setting [7]) it was 85%; in assay [5] (setting [8]), 90%; in assay [5] (Table 28, 100 ppm Ferrate) it was 88%; in [5] (setting [9]), 81%; in [5] (Table 28, 200 ppm Ferrate), 89%. In addition, the “% Reduction in Estrogenic Activity, Liquid Portion (n = 3)” value in [5] (Table 29 (anaerobically digested biosolids, inferred b252), 50 ppm Ferrate) is 68%; in [5] (setting [10]), 71%; in assay [5] (setting [11]) it was 74%; in assay [5] (Table 29, 100 ppm Ferrate), 73%; in assay [5] (setting [12]) it was 71%; in assay [5] (Table 29, 200 ppm Ferrate), 72%. The “log reduction (approximated)” value with Salmonella Typhimurium is given as “around three”.
Consider `CC/C(=C(\c1ccc(O)cc1)c1ccc(OCCN(C)C)cc1)c1ccccc1` [hydroxytamoxifen], for which the “response in the YES assay (in words)” value in assay [6] is given as “partial agonistic (estrogenic) response”.

The values above are taken from patent publication US20130032547A1, “STABILIZATION AND DISINFECTION OF WASTES USING HIGH ENERGY E-BEAM AND CHEMICAL OXIDANTS” (priority 2011, published 2013).
